Data taken from publication PMC9178789.

Key:
[1] = Thioether stapling in folded myoglobin: Cys thiol SN2 on the chloroacetamide of genetically encoded p-chloroacetamido-Phe (pCaaF), loss of HCl; spontaneous during E. coli expression (27 °C overnight) and purification, then overnight incubation at pH ~8.5; settings: the molecule shown is the open-chain precursor, aqueous (E. coli cytosol, then KPi buffer adjusted to pH ~8.5), other, scale: % stapled
[2] = Thioether stapling in folded myoglobin: Cys thiol SN2 on the bromoethyl ether of genetically encoded O-2-bromoethyl tyrosine (O2beY), loss of HBr; settings: the molecule shown is the open-chain precursor, aqueous (E. coli expression), other, scale: 1 = efficient/successful stapling, 0.5 = partial, 0 = failed, cited from earlier work

sperm whale Mb(H64V,V68A) + D20S, G23C, D27A, R118pCaaF
ring closure, conversion by HPLC ([1]; 296-membered ring): 100

sperm whale Mb(H64V,V68A) + D27pCaaF, H113C, V114G
ring closure, conversion by HPLC ([1]; 269-membered ring): 100

sperm whale Mb(H64V,V68A) + G5O2beY, D126C
ring closure, product found ([2]; 374-membered ring): 1

sperm whale Mb(H64V,V68A) + G5pCaaF, D126C
ring closure, conversion by HPLC ([1]; 374-membered ring): 100

sperm whale Mb(H64V,V68A) + G5pCaaF, H36pCaaF, E109C, D126C
ring closure, conversion by HPLC [1]: 100

sperm whale Mb(H64V,V68A) + G5pCaaF, H36pCaaF, E109C, H113E, D126C
ring closure, conversion by HPLC [1]: 100

sperm whale Mb(H64V,V68A) + H36O2beY, E109C
ring closure, product found ([2]; 230-membered ring): 1

sperm whale Mb(H64V,V68A) + H36pCaaF, E109C
ring closure, conversion by HPLC ([1]; 230-membered ring): 78

sperm whale Mb(H64V,V68A) + K16C, H119A, G121O2beY, D122S
ring closure, product found ([2]; 326-membered ring): 0

sperm whale Mb(H64V,V68A) + K16C, H119A, G121pCaaF, D122S
ring closure, conversion by HPLC ([1]; 326-membered ring): 60

sperm whale Mb(H64V,V68A) + L9R, H12C, D122T, A127O2beY
ring closure, product found ([2]; 356-membered ring): 1

sperm whale Mb(H64V,V68A) + L9R, H12C, D122T, A127pCaaF
ring closure, conversion by HPLC ([1]; 356-membered ring): 100

sperm whale Mb(H64V,V68A) + R31O2beY, S35K, E109C
ring closure, product found ([2]; 245-membered ring): 0

sperm whale Mb(H64V,V68A) + R31pCaaF, S35K, E109C
ring closure, conversion by HPLC ([1]; 245-membered ring): 100
